Measured values taken from patent publication US20130071328A1, “Propynoic Acid Carbamoyl Methyl-Amides and Pharmaceutical Compositions and Methods Based Thereon” (UNIVERSITY OF SOUTHERN CALIFORNIA, priority 2011, published 2013).

Tests used:
[1] = tested on: UMUC3 bladder cancer cell line; experiment: MTT cytotoxicity assay, UMUC3; format: cell-based; conditions: Homo sapiens, 72 h exposure
Method in brief: (§1)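 Cells were seeded, allowed to attach overnight, then exposed continuously to drug for 72 h. MTT (0.5 mg/mL final) was added for 4 h at 37 °C, formazan was dissolved in DMSO and absorbance read at 570 nm. IC50 came from log(drug concentration) versus percent cells killed, triplicate.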

[2] = tested on: SOD1; experiment: Kinexus 628-antibody microarray; format: cell-based, human; conditions: MDA-MB-435 cells, 0.1 μM, 24 h
Description: To better understand the mechanisms of action of this class of novel PACMA compounds, we subjected cell lysates from untreated and compound 1-treated MDA-MB-435 cells to the Kinexus 628-antibody microarray analysis in search of potential signaling molecules; 350 pan-specific and 270 phospho-site antibodies were included to track changes in protein expression and phosphorylation status. The cell lysates were run in parallel on the Kinexus antibody chip and the differential binding of dye-labeled proteins was detected and quantified. Proteins with significant expression changes were then identified and used as the basis for signaling pathway interpretation.
MDA-MB-435 cells were treated with 0.1 μM compound 1 for 24 h. After treatment, cells were washed with ice-cold PBS to remove residual medium. Cells were then lysed in 200 μL of lysis buffer (20 mM MOPS, pH 7.0, 2 mM EGTA, 5 mM EDTA, 30 mM sodium fluoride, 60 mM β-glycerophosphate, pH 7.2, 20 mM sodium pyrophosphate, 1 mM sodium orthovanadate, 1 mM phenylmethylsulfonylfluoride, 3 mM benzamidine, 5 μM pepstatin A, 10 μM leupeptin, 1% Triton X-100, 1 mM dithiothreitol) and collected into a microcentrifuge tube. […] The supernatants were then transferred to a cleanmicrocentrifuge tube, and the protein concentrations were measured using BCA protein assay. […]

[3] = tested on: HT29 colon cancer cell line; experiment: MTT cytotoxicity assay, HT29; format: cell-based; conditions: Homo sapiens, HT-29, 72 h exposure
Method in brief: as §1

[4] = tested on: p53; experiment: Western blotting of p53 protein level; format: cell-based, human; conditions: MDA-MB-435 cells, 1 μM, 24 to 72 hours
Description: (§2) Cells were detached using 1×trypsin-EDTA solution and collected by centrifugation at 1200 rpm for 5 min. Cells were then lysed in 80 μL of 1× cell lysis buffer (50 mM Tris-HCl, pH 7.5, 150 mM NaCl, and 1% NP-40) and pelleted by centrifugation at 14,000 rpm for 20 min at 4° C. Protein concentration of the whole cell lysates was measured using BCA protein assay and equal amounts of total protein were resolved on a 10% tris-glycine gel via SDS-PAGE. The separated proteins were electro-blotted onto nitrocellulose membrane and blocked in 5% BSA/PBS for 1 h at room temperature. The membrane was probed with anti-p53 (SC-126, Santa Cruz Biotechnology Inc.), anti-caspase 9 (Cat. no. 9508; Cell Signaling Technology), anti-a-tubulin (SC-5286, Santa Cruz Biotechnology Inc.), and anti-GAPDH(Y3322GAPDH, Biochain Institute, Inc.) antibodies at 4 C overnight. Horseradish peroxidase-conjugated secondary antibodies (Invitrogen, Carlsbad, Calif.) in combination with SuperSignal Dura (ThermoFisher, Rockford, Ill.) enhanced chemiluminescence (ECL) solutions were used to visualize proteins of interest with a ChemiDoc Imaging system (Bio-Rad, Hercules, Calif.).

[5] = tested on: MDA-MB-435 cells; experiment: Mitochondrial superoxide production (MitoSOX Red); format: cell-based, human; conditions: IC50 or 3×IC50, 24 hours
Description: After drug treatments, a solution of 5 μM MitoSOX Red mitochondrial superoxide indicator (Invitrogen, Carlsbad, Calif.) was added, and cells were incubated for 10 min at 37° C. Cells were then washed three times with Hank's balanced salt solution (HBSS) to remove excess MitoSOX. After washing, cells were either observed under the fluorescence microscope or collected by trypsinization, washed twice with HBSS, and measured for superoxide production using a BD LSRII flow cytometer (BD Biosciences, San Jose, Calif., USA). Data were analyzed with the BD FACSDiva software package (BD Biosciences, San Jose, Calif., USA).

[6] = tested on: HEY ovarian cancer cell line; experiment: Cytotoxicity assay, HEY; format: cell-based; conditions: Homo sapiens; MTT, 72 h exposure (Table 2)
Method in brief: as §1

[7] = tested on: HCT116 p53^−/− colon cancer cell line; experiment: MTT cytotoxicity assay, HCT116 p53-/-; format: cell-based; conditions: Homo sapiens, HCT-116, 72 h exposure
Method in brief: as §1

[8] = tested on: caspase-9; experiment: Western blotting of full-length caspase-9 protein level; format: cell-based, human; conditions: MDA-MB-435 cells, 1 μM, after 24 hours, maintained up to 72 hours
Description: as §2

[9] = tested on: 5637 bladder cancer cell line; experiment: MTT cytotoxicity assay, 5637; format: cell-based, human; conditions: Homo sapiens, 72 h exposure
Method in brief: as §1

[10] = tested on: doxorubicin-resistant NCI/ADR-RES ovarian cancer cell line; experiment: Cytotoxicity assay, NCI/ADR-RES; format: cell-based; conditions: Homo sapiens, MTT, 72 h exposure (Table 2)
Method in brief: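 Cells attached overnight, then continuously exposed to drug for 72 h. MTT (0.5 mg/mL final) added 4 h at 37 °C, formazan dissolved in DMSO, absorbance at 570 nm, triplicates; IC50 from log concentration versus % cells killed.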

[11] = tested on: MDA-MB-435 cells; experiment: Apoptosis assay, annexin V/propidium iodide flow cytometry; format: cell-based, human
Description: To quantify drug-induced apoptosis, annexin V/propidium iodide staining was performed and analyzed by flow cytometry. MDA-MB-435 cells were treated with 10 μM compound 1, 2, or 4 for 24 and 48 h. After treatment, both floating and adherent cells were combined and subjected to annexin V/propidium iodide staining using an annexin V-FITC apoptosis detection kit (Oncogene Research Products, San Diego, Calif.) according to manufacturer's recommendations. Untreated control cells (48 h) were maintained in parallel to drugtreated groups. Double staining was used to distinguish between viable, early apoptotic, and necrotic or late apoptotic cells. The resulting fluorescence (FITC-A channel for green fluorescence and PE-A channel for red fluorescence) was measured by flow cytometry using a BD LSRII flow cytometer (BD Biosciences, San Jose, Calif.).

[12] = tested on: HCT116 p53^+/+ colon cancer cell line; experiment: MTT cytotoxicity assay, HCT116 p53+/+; format: cell-based; conditions: Homo sapiens, HCT-116, 72 h exposure
Method in brief: as §1

C#CC(=O)N(c1cc(OC)cc(OC)c1)C(C(=O)NC1CCCCC1)c1ccc(OC)cc1 (stereo not drawn) [Compound 1, N-[2-(Cyclohexylamino)-1-(4-methoxyphenyl)-2-oxoethyl]-N-(3,5-dimethoxyphenyl)Propynamide]
IC50 [1]: > 20 µM
SOD1 expression [2]: up-regulated
IC50 [3]: 6.3 ± 1.5 µM
p53 protein level [4]: up-regulated
mitochondrial superoxide production, flow cytometry [5]: induce significant amounts of superoxide
IC50 [6]: 4.4 ± 3 µM
IC50 [7]: 11 µM
decrease in full-length caspase-9 protein level [8]: 2 fold
IC50 [9]: 2.2 ± 0.2 µM
IC50 [10]: 0.3 µM
induction of early apoptosis ([11]; 10 μM, 24 hours): failed to induce early apoptosis
increase in early apoptotic cells ([11]; 10 μM, 48 h): 8%
percentage of late apoptotic cells ([11]; 10 μM, 48 hours): 35%
induction of apoptosis ([11]; 24 and 48 hours): induce apoptosis
IC50 [12]: 12.5 ± 2.1 µM
